This note sets out measurements from ChEMBL document CHEMBL1177693, “Antimalarials from nature” (Bioorg Med Chem, 2009).

The structures appear in SMILES notation. ≈ marks a conversion by molar mass, not a printed value.

One may read the IC50 as the concentration that inhibits the measured activity by half. As a reminder, the EC50 is the concentration at which the effect is half-maximal.

In one assay the test system is Plasmodium vivax. The assay is described as follows: Antimalarial activity against Plasmodium vivax infected in human HepG2-A16 cells assessed as reduction of trophozoites level. The format is functional. Also on record: scale not given: the % may be the effect or the level left.
Conditions: not given
In the case of `CC(CO)CCC(=O)[C@@H](C)[C@H]1[C@H](O)C[C@H]2[C@@H]3CCC4=CC(=O)CC[C@]4(C)[C@H]3CC[C@]12C` (some centres not stated), the Activity stood at 47%.
On the same count and under the same terms, in the case of `CC(CCC1(O)C[C@@H]2C[C@H]3[C@@H]4CCC5=CC(=O)CC[C@]5(C)[C@H]4CC[C@]3(C)[C@H]2[C@@H]1C)CO[C@@H]1O[C@H](CO)[C@@H](O)[C@H](O)[C@H]1O` (some centres not stated) it was 39%.

The next assay relates to Plasmodium falciparum. The assay is described as follows: Antimalarial activity against Plasmodium falciparum NF54.
Conditions: not given
The format is functional, organism-based.
Compound `COc1c2c(c(O)c3c4c(c(C)cc13)[C@@H]1O[C@@]3(C(OC)OC)O[C@@H]1[C@@](O[C@H]1C[C@@H](O)[C@@](O)(C(C)=O)[C@H](C)O1)(O4)[C@@]31CO1)C(=O)[C@@H](O)C[C@@H]2O[C@H]1C[C@@](C)(O)[C@H](OC(C)=O)[C@H](C)O1` [TRIOXACARCIN A] gave an IC50 of 0.0017 µg/mL.
The same measure, in the same setting: the result for `COc1c2c(c(O)c3c4c(c(C)cc13)[C@@H]1O[C@@]3(C(OC)OC)O[C@@H]1[C@@](O[C@H]1C[C@@H](O)[C@@](O)(C(C)=O)[C@H](C)O1)(O4)[C@@]31CO1)C(=O)[C@@H](O)C[C@@H]2O[C@H]1C[C@@](C)(O)[C@H](O)[C@H](C)O1` [TRIOXACARCIN D] reads 0.0017 µg/mL.
Still for that read-out and setting: the result for `C[C@@H]1O[C@@H](Oc2cc3oc(-c4ccc(O)c(O)c4)cc(=O)c3c(O)c2O)[C@H](O)[C@H](O)[C@H]1O` reads 3320 nM.

In another assay the test system is Plasmodium falciparum. As to the kind of experiment: Antimalarial activity against Plasmodium falciparum. The format is functional, organism-based. Conditions: Plasmodium falciparum.
`COc1cc2c3c(c1O)Oc1ccc(cc1)C[C@@H]1c4c(cc(OC)c(O)c4Oc4ccc(cc4)C[C@H]3N(C)CC2)CCN1C` [ISOCHONDODENDRINE] gave an IC50 of 892 nM.
The same measure, in the same setting: the result for `C=C1C(=O)O[C@@H]2/C=C(/C)C3=CC(=O)[C@](C)(O3)[C@H](O)[C@@H](OC(=O)CC(C)C)[C@@H]12` [LOBATIN B] reads 16500 nM; that for `C=C1C2CC[C@@]3(C)[C@H](c4ccoc4)OC(=O)C[C@]13O[C@H]1CC(=O)C(C)(C)[C@H](CC(=O)OC)[C@@]21C`, 5.9 µg/mL.
Turning to `COc1ccc2c(c1O)CCc1cc(O)c(C)c3c1C2CC(C)(C)O3` (stereo not drawn) [RACEMOSOL], a half-maximal response (EC50) required 0.9 µg/mL (≈ 2.64 µM).
As to `COc1cc2c3cc1Oc1c(OC)c(OC)cc4c1[C@H](Cc1ccc(OC)c(c1)-c1cc(ccc1O)C[C@H]3N(C)CC2)N(C)CC4`, 1140 nM corresponded to half-maximal inhibition (IC50).
The same measure, in the same setting: in the case of `C=C(C)C(=O)O[C@H]1C[C@H](C)C2=CC(=O)[C@](C)(/C=C3/OC(=O)C(COC(C)=O)=C31)O2` it was 1.8 µg/mL; in that of `COc1cc2c(cc1O)CCN(C)[C@H]2Cc1ccc(Oc2c(O)c(OC)cc3c2C[C@@H]2c4c(cc(OC)c(OC)c4-3)CCN2C)cc1`, 0.0112 µg/mL.
Regarding `C[C@@]12C=CC(=O)[C@@]3(C)[C@H]1[C@@H](OC2)[C@@H](OC(=O)c1ccccc1)[C@@]1(C)C2=CC[C@@H](C4=CC(O)OC4=O)[C@]2(C)C[C@@H]2O[C@]231` (mixture of isomers) [TRICHIRUBINE B], the IC50 came to 0.2 µg/mL.

In the next assay the test system is Plasmodium berghei. As to the kind of experiment: Antimalarial activity against Plasmodium berghei infected in mice (Mus musculus) assessed as increase in survival of mice (Mus musculus) at 100 uM/kg. Format: functional.
Conditions: not given
As to `Oc1cccc2c1[nH]c1c(C3=C[C@]4(O)CC/C=C\CCCCN5CC[C@H]3[C@@]3(C[C@H]6/C=C\CCCCN6[C@@H]34)C5)nccc12` [ENT-8-HYDROXYMENZAMINE A], the Survival was found to be 9 days.
Still for that read-out and setting: the result for `C[C@@H]1CC[C@H]2[C@@H](C)C(=O)O[C@@H]3O[C@@]4(C)CC[C@@H]1[C@]32OO4` [ARTEMISININ] reads 2 days; that for `CCN(CC)CCCC(C)Nc1ccnc2cc(Cl)ccc12` (configuration not stated) [CHLOROQUINE], 6 days.
The same measure, in the same setting: the result for `O[C@@H]1CCCN2CC[C@@H]1O[C@@]13CC[C@@H](OC[C@]45CN6CCCC/C=C\CC[C@](O)(C=C(c7nccc8c7[nH]c7ccccc78)[C@@H]4CC6)[C@H]25)[C@@H](O)CCN1[C@@H]1[C@]2(CN4CCCC/C=C\CC[C@]1(O)C=C(c1nccc5c1[nH]c1ccccc15)[C@@H]2CC4)C3` [NEO-KAULUAMINE] reads 9 days.

Another assay has as its system Plasmodium falciparum. As to the kind of experiment: Antimalarial activity against Plasmodium falciparum D6. Format: functional, organism-based.
Conditions: not given
The compound `COc1cc(/C=C/C(=O)CC(=O)/C=C/c2ccc(O)c(OC)c2)ccc1O` [CURCUMIN] yielded an IC50 of 3.5 µg/mL (≈ 9.5 µM).

The test system of a further assay is Plasmodium falciparum. As to the kind of experiment: Antimalarial activity against chloroquine-sensitive Plasmodium falciparum PoW. Format: functional, organism-based.
Conditions: not given
Compound `COc1ccc(-c2coc3cc(O)ccc3c2=O)cc1O` [CALYCOSIN] gave an IC50 of 4.2 µg/mL (≈ 14.8 µM).
Compound `O=c1c(-c2ccc(O)cc2)coc2cc(O)cc(O)c12` [GENISTEIN] yielded an IC50 of 2 µg/mL (≈ 7.4 µM).
Same read-out and setting: the result for `COc1ccc(-c2cc(=O)c3c(O)cc(O)cc3o2)cc1` [ACACETIN] reads 5.5 µg/mL (≈ 19.3 µM).

In the next assay the test system is Plasmodium falciparum. As to the kind of experiment: Antimalarial activity against Plasmodium falciparum T9-96. The format is functional, organism-based.
Conditions: not given
`CO[C@@H]1C=C[C@]23c4cc5c(cc4[C@@H](O)N(C[C@@H]2O)[C@H]3C1)OCO5`: 0.34 µg/mL (≈ 1.07 µM) corresponded to half-maximal inhibition (IC50).
The same measure, in the same setting: the result for `CO[C@@H]1C=C[C@@]23c4cc5c(cc4CN(C[C@@H]2O)[C@H]3C1)OCO5` [(+)-HAEMANTHAMINE] reads 0.7 µg/mL (≈ 2.32 µM).

The test system of another assay is Plasmodium falciparum. The assay is described as follows: Antimalarial activity against multidrug-resistant Plasmodium falciparum K1. Format: functional, organism-based.
Conditions: not given
With `CC[C@@]12CCCN3CC[C@]4(c5ccc(OC)c(O)c5N(C(C)=O)[C@@H]4CC1)[C@H]32` [ASPIDOCARPINE], the IC50 was determined as 19 nM.
The same measure, in the same setting: in the case of `COC(=O)[C@]12OC[C@]34[C@H]([C@@H](O)[C@@H]1O)[C@@]1(C)C5=CC(=O)OC5=C[C@@H](C)[C@@H]1C[C@H]3OC(=O)[C@H](OC(C)=O)[C@@H]24` [NEOSERGEOLIDE] it was 2 nM.

In another assay the test system is Plasmodium falciparum. As to the kind of experiment: Antimalarial activity against Plasmodium falciparum K1. The format is functional, organism-based.
Conditions: not given
The compound `COc1c2c(c(O)c3c4c(c(C)cc13)[C@@H]1O[C@@]3(C(OC)OC)O[C@@H]1[C@@](O[C@H]1C[C@@H](O)[C@@](O)(C(C)=O)[C@H](C)O1)(O4)[C@@]31CO1)C(=O)[C@@H](O)C[C@@H]2O[C@H]1C[C@@](C)(O)[C@H](OC(C)=O)[C@H](C)O1` [TRIOXACARCIN A] came in with an IC50 of 0.0015 µg/mL.
Same read-out and setting: the result for `COc1c2c(c(O)c3c4c(c(C)cc13)[C@@H]1O[C@@]3(C(OC)OC)O[C@@H]1[C@@](O[C@H]1C[C@@H](O)[C@@](O)(C(C)=O)[C@H](C)O1)(O4)[C@@]31CO1)C(=O)[C@@H](O)C[C@@H]2O[C@H]1C[C@@](C)(O)[C@H](O)[C@H](C)O1` [TRIOXACARCIN D] reads 0.0015 µg/mL.
On the same count and under the same terms, the result for `C[C@@H]1O[C@@H](Oc2cc3oc(-c4ccc(O)c(O)c4)cc(=O)c3c(O)c2O)[C@H](O)[C@H](O)[C@H]1O` reads 2130 nM.

In another assay the test system is Plasmodium falciparum. The assay is described as follows: Antimalarial activity against chloroquine-resistant Plasmodium falciparum Dd2. Format: functional, organism-based.
Conditions: not given
Consider `COc1ccc(-c2coc3cc(O)ccc3c2=O)cc1O` [CALYCOSIN], for which the IC50 turned out to be 9.8 µg/mL (≈ 34.5 µM).
The same measure, in the same setting: the result for `O=c1c(-c2ccc(O)cc2)coc2cc(O)cc(O)c12` [GENISTEIN] reads 4.1 µg/mL (≈ 15.2 µM); that for `COc1ccc(-c2cc(=O)c3c(O)cc(O)cc3o2)cc1` [ACACETIN], 12.6 µg/mL (≈ 44.3 µM).

The test system of a further assay is Plasmodium falciparum. The assay is described as follows: Antimalarial activity against Plasmodium falciparum W2. Format: functional, organism-based.
Conditions: not given
In turn, `COc1cc(/C=C/C(=O)CC(=O)/C=C/c2ccc(O)c(OC)c2)ccc1O` [CURCUMIN] showed an IC50 of 4.2 µg/mL (≈ 11.4 µM).
